Reference: patent US8846367B2, “Coryneform bacterium transformant and process for producing phenol using the same” (Green Phenol Development Co., Ltd., priority 2010, dated 2014)
Where two headings read alike, the source gives them in different places.

Columns and labels:
Escherichia coli JM109 = conditions: aerobic culture, LB liquid medium, 37° C.
Method: (§1) A growth inhibition test in aerobic culture was performed to examine the influence of phenol on Corynebacterium glutamicum, Escherichia coli, and Pseudomonas putida. Pseudomonas putida S12, which was used for the test, is reported to be a solvent-resistant strain. In the report, disclosed is an unparalleled technology using the strain as a host in phenol production.
Escherichia coli JM109 was applied to LB agar medium (1% polypeptone, 0.5% yeast extract, 0.5% NaCl and 1.5% agar) and was left stand in the dark at 37° C. for 15 hours.
An inoculation loop of the Escherichia coli JM109 grown on a plate as above was inoculated into a test tube containing 10 mL of LB liquid medium (1% polypeptone, 0.5% yeast extract, and 0.5% NaCl), and aerobic culture was performed with shaking at 37° C. for 13 hours.
(§2) The Escherichia coli JM109 grown in the above conditions was inoculated into 100 mL of LB liquid medium in such a way that the initial bacterial cell concentration would be OD610=0.05, phenol was added at the same time in such a way that the final concentration would be 0, 0.16, or 0.20 mM, and aerobic culture was performed with shaking at 37° C. The growth of bacterial cells was determined by absorbance measurement at OD610.

Pseudomonas putida F1 = conditions: aerobic culture, LB (+glucose) liquid medium, 30° C.
Method: as §1
(§3) Pseudomonas putida F1 and S12 were applied to LB agar medium (1% polypeptone, 0.5% yeast extract, 0.5% NaCl and 1.5% agar) and were left stand in the dark at 30° C. for 15 hours.
(§4) An inoculation loop of each of the Pseudomonas putida F1 and S12 grown on a plate as above was inoculated into a test tube containing 10 mL of LB (+glucose) liquid medium (1% polypeptone, 0.5% yeast extract, 0.5% NaCl and 0.4% glucose), and aerobic culture was performed with shaking at 30° C. for 13 hours.
as §2, with “The Pseudomonas putida F1 and S12” for “The Escherichia coli JM109”, “conditions were each” for “conditions was”, “LB (+glucose)” for “LB”, “0, 0.10,” for “0, 0.16,”, “at 30°” for “at 37°”

Pseudomonas putida S12 = conditions: aerobic culture, LB (+glucose) liquid medium, 30° C.
Method: as §1, §3, §4
as §2, with “The Pseudomonas putida F1 and S12” for “The Escherichia coli JM109”, “conditions were each” for “conditions was”, “LB (+glucose)” for “LB”, “0, 0.10,” for “0, 0.16,”, “at 30°” for “at 37°”

[1] = test system: Corynebacterium glutamicum R; conditions: aerobic culture, A liquid medium, 33° C.
Method: as §1
Corynebacterium glutamicum R was applied to A agar medium (2 g of (NH2)2CO, 7 g of (NH4)2SO4, 0.5 g of KH2PO4, 0.5 g of K2HPO4, 0.5 g of MgSO4.7H2O, 1 mL of 0.06% (w/v) Fe2SO4.7H2O+0.042% (w/v) MnSO4.2H2O, 1 mL of 0.02% (w/v) biotin solution, 2 mL of 0.01% (w/v) thiamin solution, 2 g of yeast extract, 7 g of vitamin assay casamino acid, 40 g of glucose, and 15 g of agar were suspended in 1 L of distilled water) and was left stand in the dark at 33° C. for 15 hours.
An inoculation loop of the Corynebacterium glutamicum R grown on a plate as above was inoculated into a test tube containing 10 mL of A liquid medium (2 g of (NH2)2CO, 7 g of (NH4)2SO4, 0.5 g of KH2PO4, 0.5 g of K2HPO4, 0.5 g of MgSO4.7H2O, 1 mL of 0.06% (w/v) Fe2SO4.7H2O+0.042% (w/v) MnSO4.2H2O, 1 mL of 0.02% (w/v) biotin solution, 2 mL of 0.01% (w/v) thiamin solution, 2 g of yeast extract, 7 g of vitamin assay casamino acid, and 40 g of glucose were suspended in 1 L of distilled water) and was aerobically cultured with shaking at 33° C. for 13 hours.
as §2, with “Corynebacterium glutamicum R” for “Escherichia coli JM109”, “A” for “LB”, “0.16, 0.2, 0.24,” for “0.16,”, “0.32” for “0.20”, “33°” for “37°”

Oc1ccccc1 [phenol]
proliferation of Escherichia coli (OD610) (Escherichia coli JM109; 0.16% phenol): significantly affected
proliferation of Escherichia coli (OD610) (Escherichia coli JM109; 0.20% phenol): completely inhibited
proliferation of Pseudomonas putida F1 (OD610) (Pseudomonas putida F1; 0.10% phenol): significantly affected
proliferation of Pseudomonas putida F1 (OD610) (Pseudomonas putida F1; 0.20% phenol): completely inhibited
proliferation of Pseudomonas putida S12 (OD610) (Pseudomonas putida S12; 0.10% phenol): significantly affected
proliferation of Pseudomonas putida S12 (OD610) (Pseudomonas putida S12; 0.20% phenol): completely inhibited
proliferation of Corynebacterium glutamicum (OD610) ([1]; 0.16% phenol): hardly affected
proliferation of Corynebacterium glutamicum (OD610) ([1]; 0.20% phenol): favorable growth
proliferation of Corynebacterium glutamicum (OD610) ([1]; 0.24% phenol): able to proliferate
